Measured values taken from patent US8927561B2, “Pyrimidinedione anti-viral compounds” (Kineta, Inc., priority 2010, dated 2015).

Columns and labels:
[1] = system: influenza A virus (A/WSN/33); assay: microbe, parasite or virus in culture; assay type: cell-based
Description: (§1) Chemical analogs of KIN500 are tested for in vitro antiviral activity against HCV genotype 2A and influenza A virus (A/WSN/33). Viral protein and RNA levels are assessed following drug treatment using the assays described above.

[2] = system: HCV genotype 2A; assay: HCV focus-forming assay (FFA); assay type: cell-based; conditions: Hepatitis C virus
Description: as §1

[3] = in vitro
[4] = system: Murine Encephalomyocarditis virus (EMCV); assay: EMCV antiviral assay (MTS cell viability); assay type: cell-based; conditions: Huh7 cells, EMCV 250 pfu, 18 h post-infection
[5] = system: ISG expression; assay: ISG expression enhancement; assay type: cell-based

COc1ccc(NC(=O)Cn2c(=O)n(Cc3ccco3)c(=O)c3sc4ccccc4c32)c(OC)c1 [KIN500, 2-[3-(furan-2-ylmethyl)-2,4-dioxo-3,4-dihydro[1]benzothieno[3,2-d]pyrimidin-1(2H)-yl]-N-(2,4-methoxyphenyl)acetamide]
Therapeutic index (TI) (CC50/IC50) ([1]; CC50/IC50): 11
IC50 ([1]; Influenza A virus, WSN, read-out: Influenza nucleoprotein (NP) ELISA (IC50)): 4.6 µM
IC50 [2]: 19.1 µM
CC50 [3]: > 50 µM
Cell viability post-infection ([4]; 5 μM): ~0.75
Cell viability post-infection ([4]; 10 μM): ~1.0
Cell viability post-infection ([4]; 20 μM): ~1.05
enhancement of ISG expression [5]: 18 fold
